Data published in US20240334934A1, “FUNGICIDE MIXTURE” (priority 2021, published 2024).

Key:
Type in all cases: cell-based
[1] = test system: Zymoseptoria tritici K6420; assay: Efficacy of mixtures of streptimidone and CtmC, liquid culture in PDB, optical density 620 nm
[2] = test system: Gibberella zeae (Fusarium graminearum); assay: microbe, parasite or virus in culture; settings: read-out: % Efficacy
[3] = test system: Zymoseptoria tritici K6318; assay: Efficacy of mixtures of streptimidone and CtmC, liquid culture in PDB, optical density 620 nm
[4] = test system: Zymoseptoria tritici K6105; assay: as above; settings: for Emax at 1.23 ppm: K6105, Streptimidone 1.23 ppm alone (CtmC 0); for Emax at 3.7 ppm: K6105, Streptimidone 3.70 ppm alone (CtmC 0); for Emax at 11.11 ppm: K6105, Streptimidone 11.11 ppm alone (CtmC 0); for Emax at 33.33 ppm: K6105, Streptimidone 33.33 ppm alone (CtmC 0)
Microdochium nivale = assay: as above
[5] = test system: Fusarium Virguliforme K6286; assay: as above
[6] = test system: Fusarium Virguliforme K6285; assay: as above
[7] = Streptimidone 0.14 ppm alone (CtmC 0)
[8] = Streptimidone 0.41 ppm alone (CtmC 0)
[9] = Streptimidone 1.23 ppm alone (CtmC 0)
[10] = Streptimidone 3.70 ppm alone (CtmC 0)
[11] = Streptimidone 11.11 ppm alone (CtmC 0)
[12] = Streptimidone 33.33 ppm alone (CtmC 0)
[13] = Streptimidone 100 ppm alone (CtmC 0)

Which Emax at 0.41 ppm ([1]; K6420, Streptimidone 0.41 ppm alone (CtmC 0)) does the source give for `C=C/C(C)=C/[C@H](C)C(=O)C[C@H](O)CC1CC(=O)NC(=O)C1` [Streptimidone] here?
The Emax at 0.41 ppm was 7%.

And the Emax at 1.23 ppm ([1]; K6420, Streptimidone 1.23 ppm alone (CtmC 0))?
Its Emax at 1.23 ppm is 17%.

And the Emax at 3.7 ppm ([1]; K6420, Streptimidone 3.70 ppm alone (CtmC 0))?
The Emax at 3.7 ppm was 32%.

What about the Emax at 11.11 ppm ([1]; K6420, Streptimidone 11.11 ppm alone (CtmC 0)) of the same compound?
The Emax at 11.11 ppm was 48%.

What about the Emax at 33.33 ppm ([1]; K6420, Streptimidone 33.33 ppm alone (CtmC 0)) of the same compound?
Its Emax at 33.33 ppm is 67%.

And the Emax at 100 ppm ([1]; K6420, Streptimidone 100 ppm alone (CtmC 0))?
The Emax at 100 ppm was 83%.

And the Emax at 33.33 ppm [2]?
Its Emax at 33.33 ppm is 50%.

And the Emax at 100 ppm [2]?
The Emax at 100 ppm was 63%.

And the Emax at 0.14 ppm [3, 7]?
Its Emax at 0.14 ppm is 0%.

And the Emax at 0.41 ppm [3, 8]?
The Emax at 0.41 ppm was 0%.

And the Emax at 1.23 ppm [3, 9]?
The Emax at 1.23 ppm was 0%.

What about the Emax at 3.7 ppm [3, 10] of the same compound?
The Emax at 3.7 ppm was 3%.

And the Emax at 11.11 ppm [3, 11]?
Its Emax at 11.11 ppm is 8%.

What about the Emax at 33.33 ppm [3, 12] of the same compound?
The Emax at 33.33 ppm was 18%.

What about the Emax at 100 ppm [3, 13] of the same compound?
Its Emax at 100 ppm is 44%.

What about the Emax at 0.41 ppm ([4]; K6105, Streptimidone 0.41 ppm alone (CtmC 0), lower sub-table) of the same compound?
The Emax at 0.41 ppm was 7%.

And the Emax at 1.23 ppm ([4]; lower sub-table)?
Its Emax at 1.23 ppm is 17%.

And the Emax at 1.23 ppm ([4]; upper sub-table)?
The Emax at 1.23 ppm was 27%.

What about the Emax at 3.7 ppm ([4]; lower sub-table) of the same compound?
Its Emax at 3.7 ppm is 32%.

And the Emax at 3.7 ppm ([4]; upper sub-table)?
The Emax at 3.7 ppm was 39%.

And the Emax at 11.11 ppm ([4]; lower sub-table)?
The Emax at 11.11 ppm was 48%.

And the Emax at 11.11 ppm ([4]; upper sub-table)?
Its Emax at 11.11 ppm is 59%.

What about the Emax at 33.33 ppm ([4]; lower sub-table) of the same compound?
Its Emax at 33.33 ppm is 67%.

What about the Emax at 33.33 ppm ([4]; upper sub-table) of the same compound?
The Emax at 33.33 ppm was 81%.

What about the Emax at 100 ppm ([4]; K6105, Streptimidone 100 ppm alone (CtmC 0), lower sub-table) of the same compound?
Its Emax at 100 ppm is 83%.

And the Emax at 0.41 ppm (Microdochium nivale; [8])?
The Emax at 0.41 ppm was 0%.

And the Emax at 1.23 ppm (Microdochium nivale; [9])?
Its Emax at 1.23 ppm is 0%.

And the Emax at 3.7 ppm (Microdochium nivale; [10])?
The Emax at 3.7 ppm was 5%.

What about the Emax at 11.11 ppm (Microdochium nivale; [11]) of the same compound?
The Emax at 11.11 ppm was 8%.

What about the Emax at 33.33 ppm (Microdochium nivale; [12]) of the same compound?
Its Emax at 33.33 ppm is 22%.

What about the Emax at 0.14 ppm [5, 7] of the same compound?
Its Emax at 0.14 ppm is 8%.

And the Emax at 0.41 ppm [5, 8]?
Its Emax at 0.41 ppm is 16%.

What about the Emax at 1.23 ppm [5, 9] of the same compound?
The Emax at 1.23 ppm was 14%.

And the Emax at 3.7 ppm [5, 10]?
The Emax at 3.7 ppm was 16%.

And the Emax at 11.11 ppm [5, 11]?
The Emax at 11.11 ppm was 16%.

What about the Emax at 33.33 ppm [5, 12] of the same compound?
The Emax at 33.33 ppm was 30%.

And the Emax at 100 ppm [5, 13]?
The Emax at 100 ppm was 47%.

What about the Emax at 0.14 ppm [6, 7] of the same compound?
Its Emax at 0.14 ppm is 10%.

What about the Emax at 0.41 ppm [6, 8] of the same compound?
The Emax at 0.41 ppm was 21%.

What about the Emax at 1.23 ppm [6, 9] of the same compound?
The Emax at 1.23 ppm was 13%.

And the Emax at 3.7 ppm [6, 10]?
Its Emax at 3.7 ppm is 18%.

And the Emax at 11.11 ppm [6, 11]?
The Emax at 11.11 ppm was 18%.

And the Emax at 33.33 ppm [6, 12]?
The Emax at 33.33 ppm was 26%.

And the Emax at 100 ppm [6, 13]?
The Emax at 100 ppm was 53%.
